In PMC11864979, “First-in-class ultralong-target-residence-time p38α inhibitors as a mitosis-targeted therapy for colorectal cancer” (Nature Cancer, 2025):
Several values for one entry are separate records, joined by “and”; a condition that tells them apart may be missing. Equal values may be shown once. Read-outs that look alike come from different tables or passages of the source.

Tests used:
p38α = p38α (Homo sapiens, UniProt Q16539); assay: target residence time (TRT) fluorescence polarization jump-dilution assay; format: binding
Sequence of p38α (Q16539 whole entry): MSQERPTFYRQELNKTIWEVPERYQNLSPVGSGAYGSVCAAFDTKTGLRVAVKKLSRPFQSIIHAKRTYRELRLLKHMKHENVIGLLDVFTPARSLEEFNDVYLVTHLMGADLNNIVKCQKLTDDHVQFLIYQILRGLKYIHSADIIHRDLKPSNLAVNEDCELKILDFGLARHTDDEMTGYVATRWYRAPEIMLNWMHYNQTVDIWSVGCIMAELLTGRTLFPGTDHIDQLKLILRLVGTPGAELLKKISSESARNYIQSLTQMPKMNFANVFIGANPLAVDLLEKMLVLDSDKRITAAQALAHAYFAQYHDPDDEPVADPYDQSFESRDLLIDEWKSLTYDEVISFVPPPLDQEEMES
Method: TRTs were determined using a fluorescence polarization assay kit (Transcreener ADP, BellBrook Labs)[29]. […] The formed complex was ‘jump-diluted’ 1:100 (0.5 µl in 49.5 µl) in a 96-half-area-well plate with ATF2 (82 μM), ATP (40 μM) and ADP as the kinase assay detection reagents. The plate was measured every 3 min for 4 h. Fluorescence polarization was detected using the plate reader VictorNivo (PerkinElmer). The data were analyzed using the integrated rate equation in GraphPad Prism version 7.03 software. The residence time was calculated from the reciprocal value of koff.

KAP organoids = assay: cell viability in KAP organoids (CellTiter-Glo); format: cell-based, mouse; conditions: for viability at 1 µM: Mus musculus
Method: (§1) For in vitro treatment studies, organoids were mechanically dissociated and digested using TrypLE supplemented with 100 µg ml^−1 DNaseI and 10.5 µM Y-27632 dihydrochloride (Invitrogen) at 37 °C. A total of 1,000–2,000 single cells were plated per well in white 96-well plates (Greiner) in culture medium containing 10% GFR Matrigel or Cultrex BME. The treatment with doxycycline (5 µg ml^−1), pharmacological inhibitors or corresponding volumes of DMSO was started 24 h after plating. Doxycycline was obtained from Sigma-Aldrich. […] Cell viability was measured by means of CellTiter-Glo 3D or CellTiter-Glo 2.0 reagent (Promega) according to the manufacturers’ instructions and the Infinite M Plex reader (Tecan, i-control version 3.9.1 software). Results were normalized to vehicle (DMSO) or to shNC. For cell-doubling assays, the cell number was quantified at the corresponding time points using Guava EasyCyte flow cytometer (Luminex, CytoSoft v5.2 software).

PDO8 = assay: cell viability in patient-derived CRC organoids PDO8; format: cell-based, human
Method: as §1

PDO9 = assay: cell viability in patient-derived CRC organoids PDO9; format: cell-based, human
Method: as §1

PDO10 = assay: cell viability in patient-derived CRC organoids PDO10; format: cell-based, human
Method: as §1

PDO11 = assay: cell viability in patient-derived CRC organoids PDO11; format: cell-based, human
Method: as §1

PDO12 = assay: cell viability in patient-derived CRC organoids PDO12; format: cell-based, human
Method: as §1

PDO14 = assay: cell viability in patient-derived CRC organoids PDO14; format: cell-based, human
Method: as §1

COLO 205 = assay: cell viability in human CRC cell line COLO 205; format: cell-based; conditions: 4 d
Method: To generate KAP^2D cells, KAP organoids were isolated from Matrigel, fragmented by mechanical dissociation and plated without any extracellular matrix on common cell culture dishes. Phoenix-Eco packaging cells (CRL-3214), HCT-15 (CCL-225), HCT 116 (CCL-247), COLO 205 (CCL-222), LS 174T (CL-188), RKO (CRL-2577) and HT-29 (HTB-38) were obtained from the American Type Culture Collection. The cells were cultured at 37 °C and 7% CO2 with RPMI (KAP^2D cells) or DMEM (other cell lines), supplemented with 10% FBS and penicillin–streptomycin. KAP^2D cells were authenticated using PCR (Kras locus and Trp53 locus). Phoenix-Eco packaging cells and HCT-15, HCT 116, COLO 205, LS 174T, RKO and HT-29 cells were authenticated by the provider using short tandem repeat profiling. No commonly misidentified cell lines were used. Mycoplasma contamination was excluded by a PCR-based analysis.
as §1

LS 174T = assay: cell viability in human CRC cell line LS 174T; format: cell-based; conditions: 4 d
Method: The cells were cultured at 37 °C and 7% CO2 with RPMI (KAP^2D cells) or DMEM (other cell lines), supplemented with 10% FBS and penicillin–streptomycin. […] No commonly misidentified cell lines were used. Mycoplasma contamination was excluded by a PCR-based analysis.

KAP^2D cells = assay: EdU incorporation in KAP^2D cells; format: cell-based, mouse; conditions: replicates, experiment and repetition
Method: Immunofluorescence staining on cells and organoids was performed on glass coverslips or tissue culture chambers (Sarstedt). Organoids were plated in medium containing 10% Matrigel or Cultrex BME. The cultures were fixed with 4% paraformaldehyde and stained with specific antibodies and DAPI (Vector Labs). All used antibodies and dilutions are listed in the Nature Portfolio Reporting Summary. For analyzing DNA synthesis, the Molecular Probes Click-iT EdU Alexa Fluor 555 kit was used 24 h after EdU incorporation with DAPI counterstaining. SA-β-Gal staining of cells was performed in cell culture dishes (cells) or tissue culture chambers (organoids) after fixation with 0.5% glutaraldehyde as described above. Human cultures were incubated with X-Gal solution at pH 6.0 for ~4 h.

subcutaneous KAP CRCs = assay: treatment of subcutaneous KAP tumors in wild-type mice; format: in vivo, mouse; conditions: for Tumor volume (mm³): Fig. 1j, individual tumors
Method: Subcutaneous injection, splenic seeding or cecum injection of organoids was performed in 8–10-week-old C57BL/6 N/Crl, Rag2^−/− (B6.Cg-Rag2^tm1.1Cgn/J), or CB17 Scid beige (CB17.Cg-Prkdc^scidLyst^bg-J/Crl) mice, obtained from Charles River. The organoids were dissociated into single cells, washed with PBS and injected in a 1:1 mixture of PBS and Matrigel. For murine organoids, 1 × 10^5 cells were injected into the left and right flanks or the spleen capsule and 2 × 10^6 cells were injected into the cecum wall. For human organoids, 4 × 10^5 cells were injected into the flanks of CB17 Scid beige mice. For splenic seeding and cecum injection, mice were anaesthetized using ketamine (100 mg kg^−1, intraperitoneally) and xylazin (10 mg/kg, intraperitoneally) in NaCl and a small laparotomy below the thorax was performed.
No mice were excluded during treatment studies.

## O=C(NCCN1CCOCC1)c1ccc2c(c1)C(=O)c1ccc(Nc3ccc(F)c(NC(=O)c4ccccc4)c3)cc1CC2 [Compound 1639]
p38α; Fig. 2e, replicates
  TRT: 191.2 s and 188.8 s and 173.0 s
p38α; reciprocal of koff
  TRT: 184 s
KAP organoids; Fig. 1g, 0.5 µM, replicates
  Cell viability (%): 93.61% and 119.78% and 82.99%
KAP organoids; Fig. 1g, 1 µM, replicates
  Cell viability (%): 54.56% and 39.62%
KAP organoids; Fig. 2b, compound screen, replicates
  Cell viability (%): 45.26% and 35.57% and 35.59%
KAP organoids; Fig. 2f, 0,5 µM, replicates, 5 µM
  Cell viability (%): 109.96% and 85.33% and 68.50%
KAP organoids; Fig. 2f, 0,25 µM, replicates, 25 µM
  Cell viability (%): 115.00% and 101.97% and 82.44%
KAP organoids; Fig. 2f, 1 µM, replicates
  Cell viability (%): 55.27% and 54.06%
KAP organoids; Fig. 1g, 1 µM, replicates, read-out: Cell viability (%)
  viability at 1 µM: 51.8%
KAP organoids; Fig. 2f, 1 µM, replicates, read-out: Cell viability (%)
  viability at 1 µM: 72.9%
KAP organoids; drug screen in KAP organoids, 1 µM concentration, n = 3, mean, read-out: Cell viability (% of DMSO)
  viability at 1 µM: 38.8%
KAP organoids; viability assay
  induction of cell death in KAP organoids (in words): moderate but significant induction of cell death
PDO8; Homo sapiens, 96 h, PDO8, 0.5 µM, 4 d
  viability at 0.5 µM: 82.7%
PDO8; PDO8, 0.5 µM, 4 d, 0.5 µM
  Cell viability (%): 82.90% and 74.01%
PDO8; PDO8, 1 µM, 4 days, 1 µM
  Cell viability (%): 84.53% and 69.94% and 45.12%
PDO9; Homo sapiens, 96 h, PDO9, 1 µM, 4 days
  viability at 1 µM: 76.2%
PDO9; PDO9, 0.5 µM, 4 d, 0.5 µM
  Cell viability (%): 87.86% and 110.04% and 106.00%
PDO9; PDO9, 1 µM, 4 days, 1 µM
  Cell viability (%): 91.05% and 91.07%
PDO10; Homo sapiens, 96 h, PDO10, 0.5 µM, 4 d, read-out: Cell viability (%)
  viability at 0.5 µM: 90.3%
PDO10; Homo sapiens, 96 h, PDO10, 1 µM, 4 days, read-out: Cell viability (%)
  viability at 1 µM: 87.1%
PDO10; PDO10, 0.5 µM, 4 d, 0.5 µM
  Cell viability (%): 99.84% and 101.72%
PDO10; PDO10, 1 µM, 4 days, 1 µM
  Cell viability (%): 92.00% and 89.92%
PDO11; PDO11, 0.5 µM, 4 d, 0.5 µM
  Cell viability (%): 109.25% and 122.99% and 99.10%
PDO11; PDO11, 1 µM, 4 days, 1 µM
  Cell viability (%): 102.62% and 119.73% and 93.65%
PDO12; PDO12, 0.5 µM, 4 d, 0.5 µM
  Cell viability (%): 74.14% and 86.52% and 99.28%
PDO12; PDO12, 1 µM, 4 days, 1 µM
  Cell viability (%): 67.94% and 91.05% and 88.04%
PDO14; Homo sapiens, 96 h, PDO14, 0.5 µM, 4 d, read-out: Cell viability (%)
  viability at 0.5 µM: 101%
PDO14; Homo sapiens, 96 h, PDO14, 1 µM, 4 days, read-out: Cell viability (%)
  viability at 1 µM: 105%
PDO14; PDO14, 0.5 µM, 4 d, 0.5 µM
  Cell viability (%): 102.33% and 109.28%
PDO14; PDO14, 1 µM, 4 days, 1 µM
  Cell viability (%): 95.42% and 93.44%
COLO 205; 0.0137 µM
  COLO 205 Cell viability (%): 96.89% and 92.36% and 102.13% and 110.53% and 105.25%
COLO 205; 0.0412 µM
  COLO 205 Cell viability (%): 99.77% and 107.60% and 109.36% and 77.71% and 88.84% and 87.27%
COLO 205; 0.1235 µM
  COLO 205 Cell viability (%): 93.71% and 107.24% and 99.74% and 85.52% and 87.44% and 87.93%
COLO 205; 0.3704 µM
  COLO 205 Cell viability (%): 100.71% and 94.45% and 83.28% and 88.21% and 85.79%
COLO 205; 1.1111 µM
  COLO 205 Cell viability (%): 89.26% and 96.25% and 98.03% and 68.45% and 75.66% and 76.80%
COLO 205; Homo sapiens, COLO 205, 96 h, 0.0137 µM
  viability at 0.0137 µM: 98.5%
COLO 205; Homo sapiens, COLO 205, 96 h, 0.3704 µM
  viability at 0.3704 µM: 92.5%
LS 174T; 0.0137 µM
  LS 174T Cell viability (%): 96.96% and 98.13% and 93.47% and 92.87% and 103.70%
LS 174T; 0.0412 µM
  LS 174T Cell viability (%): 88.17% and 87.93% and 84.72% and 87.30% and 86.06%
LS 174T; 0.1235 µM
  LS 174T Cell viability (%): 73.32% and 74.11% and 80.93% and 80.83% and 84.53%
LS 174T; 0.3704 µM
  LS 174T Cell viability (%): 72.52% and 70.49% and 77.50% and 75.15% and 72.31%
LS 174T; 1.1111 µM
  LS 174T Cell viability (%): 73.18% and 76.23% and 79.82% and 74.44% and 73.58%
LS 174T; 3.3333 µM
  LS 174T Cell viability (%): 64.63% and 65.58% and 65.84% and 62.28% and 62.47%
LS 174T; 10.0000 µM
  LS 174T Cell viability (%): 22.96% and 24.63% and 23.18% and 23.96% and 22.77%
LS 174T; Homo sapiens, LS174T, 96 h, 0.0137 µM, read-out: LS 174T Cell viability (%)
  viability at 0.0137 µM: 95%
LS 174T; Homo sapiens, LS174T, 96 h, 0.0412 µM, read-out: LS 174T Cell viability (%)
  viability at 0.0412 µM: 81.8%
LS 174T; Homo sapiens, LS174T, 96 h, 0.1235 µM, read-out: LS 174T Cell viability (%)
  viability at 0.1235 µM: 73.7%
LS 174T; Homo sapiens, LS174T, 96 h, 0.3704 µM, read-out: LS 174T Cell viability (%)
  viability at 0.3704 µM: 74.4%
LS 174T; Homo sapiens, LS174T, 96 h, 1.1111 µM, read-out: LS 174T Cell viability (%)
  viability at 1.1111 µM: 77.1%
LS 174T; Homo sapiens, LS174T, 96 h, 3.3333 µM, read-out: LS 174T Cell viability (%)
  viability at 3.3333 µM: 68.9%
LS 174T; Homo sapiens, LS174T, 96 h, 10.0000 µM, read-out: LS 174T Cell viability (%)
  viability at 10 µM: 24.4%
KAP^2D cells; Fig. 4j
  EdU+ cells: 87.08% and 89.84% and 80.20% and 80.71% and 77.64% and 85.43% and 87.34% and 80.43%
KAP^2D cells; Fig. 5b
  EdU+ cells: 16.24% and 18.58% and 17.71% and 16.69% and 15.27% and 21.79% and 19.62% and 11.52%
Subcutaneous KAP CRCs; 0 d of treatment, single tumors, Fig. 3k
  Tumor volume: 56.0 mm³ and 75.0 mm³ and 48.0 mm³ and 80.0 mm³ and 62.5 mm³ and 40.0 mm³ and 64.0 mm³
Subcutaneous KAP CRCs; 20 mg kg^−1 daily, oral gavage
  subcutaneous KAP tumor development (in words): decelerated CRC development
Subcutaneous KAP CRCs; day 0 of treatment
  Tumor volume (mm³): 56.0 mm³ (2×) and 75.0 mm³ and 48.0 mm³ (3×) and 80.0 mm³ and 62.5 mm³ and 40.0 mm³ and 64.0 mm³
Subcutaneous KAP CRCs; day 2 of treatment
  Tumor volume (mm³): 75.0 mm³ (2×) and 87.5 mm³ and 62.5 mm³ and 125.0 mm³ and 56.0 mm³ (2×) and 72.0 mm³ and 48.0 mm³ and 64.0 mm³
Subcutaneous KAP CRCs; day 4 of treatment
  Tumor volume (mm³): 126.0 mm³ (2×) and 64.0 mm³ and 125.0 mm³ and 72.0 mm³ and 75.0 mm³ and 62.5 mm³ (2×) and 80.0 mm³ and 100.0 mm³
Subcutaneous KAP CRCs; day 6 of treatment
  Tumor volume (mm³): 144.0 mm³ (2×) and 75.0 mm³ (2×) and 112.5 mm³ and 80.0 mm³ and 62.5 mm³ and 56.0 mm³ and 87.5 mm³ and 126.0 mm³
Subcutaneous KAP CRCs; day 8 of treatment
  Tumor volume (mm³): 144.0 mm³ (2×) and 162.0 mm³ and 87.5 mm³ (2×) and 112.5 mm³ and 75.0 mm³ (3×) and 100.0 mm³
Subcutaneous KAP CRCs; day 10 of treatment
  Tumor volume (mm³): 162.0 mm³ and 180.0 mm³ and 87.5 mm³ (4×) and 108.0 mm³ (2×) and 75.0 mm³ and 171.5 mm³
Subcutaneous KAP CRCs; day 12 of treatment
  Tumor volume (mm³): 180.0 mm³ (2×) and 220.5 mm³ and 112.5 mm³ (3×) and 100.0 mm³ and 108.0 mm³ and 64.0 mm³ and 126.0 mm³
